# Experiments:
# mussel = settings: natural seawater; cited from earlier work
# oyster embryos = settings: natural seawater; cited from earlier work
# Vibrio species = assay: Vibrio counts on TCBS in hatching medium, silver with or without thiosulphate (Example 3); assay type: cell-based, Vibrio sp.; settings: 24 hours; for Vibrio counts on TCBS (cfu/ml) With thiosulphate: silver nitrate:thiosulphate 1:4
# Protocol: GSL-cysts were incubated at 2g cysts /l, following standard procedures, i.e.: salinity of 25 g/l, temperature of 30°C. Continuous illumination and air bubbling was provided. Different concentrations of silver nitrate were added to the hatching medium. Thiosulphate was added to compare its effect on the hatching of Artemia and reduction of Vibrio sp. When thiosulphate was added, the molecular ratio of silver nitrate to thiosulphate was (1:4). After 24 hours, samples of the hatching medium were taken for determination of Vibrio sp. on TCBS and hatching percentage was calculated. Table 2: Effect of thiosulphate in combination with Ag, on hatching percentage of Artemia and on the amount of Vibrio species in the hatching medium
# Artemia cysts = assay: Hatching percentage of Artemia cysts sprayed with silver nitrate / thiosulphate (Example 1); assay type: in vivo, Artemia (GSL-strain); settings: 24h incubation
# Protocol: 1000 g commercially available dry cysts from Great Salt Lake (GSL-strain) were sprayed with 20 ml solution to which 2.43g or 2.02g AgNO3 is added and another 1000 g cysts were sprayed with 20 ml to which 14.20g or 11.81g thiosulphate (Na2S2O3.5(H2O)) is added (in a ratio of 4 mol thiosulphate to 1 mol AgNO3) to obtain respectively 1.50 or 1.25 mg Ag/l in the hatching medium, after incubation of 2g treated cysts therein. The cysts were gently mixed for 15-30 minutes while spraying. Both fractions were mixed together in a ratio of (1:1). The cysts were vacuum packed and stored at different temperatures (4°C, 20°C and 30°C). Cysts from the same batch were kept as a control. After 4 weeks they were incubated at 2g (treated) cysts /l, following standard procedures, i.e.: salinity of 25 g/I, temperature of 30°C. Continuous illumination and air bubbling was provided. After 24 hours of incubation, samples of the hatching medium were taken for determination of the total count on Marine agar (MA) and Vibrio sp. on TCBS (specific growth medium for Vibrio sp.). The hatching percentage (percentage of cysts that hatch on the total of full cysts) of the cysts was calculated. Tabel 1: Hatching percentage (HP) of cysts, number of colony forming units (cfu) per ml of hatching medium on MA and on TCBS after 24h incubation of Artemia cysts of control cysts and cysts with different amounts of AgNO3 (expressed as mg Ag/l hatching medium). Each value is the average of three counts.
# pathogenic Vibrio sp. = assay: Vibrio in shrimp tanks fed Artemia nauplii enriched in the presence of Ag; assay type: in vivo; settings: Artemia nauplii enriched in the presence of Ag fed for 14 days to larval shrimp; versus control enrichment
smiles,measurement,setting,value
"O=[N+]([O-])[O-].[Ag+] [Ag, silver nitrate]",toxicity levels (EC50),mussel,0.014 mg Ag/l
same,toxicity levels (EC50),oyster embryos,0.022 mg Ag/l
same,Vibrio counts on TCBS (cfu/ml) Without thiosulphate,Vibrio species; Ag 0.1 mg/l as silver nitrate,7.96 x 10^6 cfu/ml
same,Vibrio counts on TCBS (cfu/ml) With thiosulphate,Vibrio species; Ag 0.1 mg/l,1.47 x 10^5 cfu/ml
same,Vibrio counts on TCBS (cfu/ml) Without thiosulphate,Vibrio species; Ag 0.25 mg/l as silver nitrate,1.79 x 10^5 cfu/ml
same,Vibrio counts on TCBS (cfu/ml) With thiosulphate,Vibrio species; Ag 0.25 mg/l,1.70 x 10^4 cfu/ml
same,Vibrio counts on TCBS (cfu/ml) Without thiosulphate,Vibrio species; Ag 0.5 mg/l as silver nitrate,3.48 x 10^4 cfu/ml
same,Vibrio counts on TCBS (cfu/ml) With thiosulphate,Vibrio species; Ag 0.5 mg/l,<3.00 x 10^2 cfu/ml
same,Vibrio counts on TCBS (cfu/ml) Without thiosulphate,Vibrio species; Ag 0.75 mg/l as silver nitrate,6.23 x 10^2 cfu/ml
same,Vibrio counts on TCBS (cfu/ml) Without thiosulphate,Vibrio species; Ag 1.0 mg/l as silver nitrate,4.80 x 10^2 cfu/ml
same,Vibrio counts on TCBS (cfu/ml) With thiosulphate,Vibrio species; Ag 1.0 mg/l,<3.00 x 10^2 cfu/ml
same,Vibrio counts on TCBS (cfu/ml) Without thiosulphate,Vibrio species; Ag 1.25 mg/l as silver nitrate,<3.00 x 10^2 cfu/ml
same,Vibrio counts on TCBS (cfu/ml) Without thiosulphate,Vibrio species; Ag 1.5 mg/l as silver nitrate,<3.00 x 10^2 cfu/ml
same,Vibrio counts on TCBS (cfu/ml) With thiosulphate,Vibrio species; Ag 1.5 mg/l,<3.00 x 10^2 cfu/ml
same,Vibrio counts on TCBS (cfu/ml) Without thiosulphate,Vibrio species; Ag 1.75 mg/l as silver nitrate,<3.00 x 10^2 cfu/ml
same,Vibrio counts on TCBS (cfu/ml) Without thiosulphate,Vibrio species; Ag 2.0 mg/l as silver nitrate,<3.00 x 10^2 cfu/ml
same,Vibrio counts on TCBS (cfu/ml) With thiosulphate,Vibrio species; Ag 2.0 mg/l,<3.00 x 10^2 cfu/ml
same,Vibrio counts on TCBS (cfu/ml) With thiosulphate,Vibrio species; Ag 2.5 mg/l,<3.00 x 10^2 cfu/ml
same,Vibrio counts on TCBS (cfu/ml) With thiosulphate,Vibrio species; Ag 5.0 mg/l,<3.00 x 10^2 cfu/ml
same,Vibrio counts on TCBS (cfu/ml) With thiosulphate,Vibrio species; Ag 10.0 mg/l,<3.00 x 10^2 cfu/ml
same,HP (%),"Artemia cysts; 1.25 mg/l Ag (AgNO3 + thiosulphate on cysts), storage 20°C",80.3%
same,HP (%),"Artemia cysts; 1.25 mg/l Ag (AgNO3 + thiosulphate on cysts), storage 30°C",82.6%
same,HP (%),"Artemia cysts; 1.25 mg/l Ag in hatching medium (AgNO3 + thiosulphate 1:4 mol on cysts), cysts stored 4 weeks at 4°C",84.5%
same,HP (%),"Artemia cysts; 1.50 mg/l Ag (AgNO3 + thiosulphate on cysts), storage 4°C",81.4%
same,HP (%),"Artemia cysts; 1.50 mg/l Ag (AgNO3 + thiosulphate on cysts), storage 20°C",82.2%
same,HP (%),"Artemia cysts; 1.50 mg/l Ag (AgNO3 + thiosulphate on cysts), storage 30°C",81.2%
same,pathogenic Vibrio sp. in the shrimp tanks,pathogenic Vibrio sp.,a reduction in pathogenic Vibrio sp. was noticed

# — patent publication EP1658776A1, “Method for producing live food water organisms in the presence of an antibacterial” (priority 2004, dated 2006)
